Data reported in US10125121B2, “FYN kinase inhibitors” (ROTTAPHARM BIOTECH S.R.L., priority 2015, dated 2018).
One block for each molecule: values may come before it.

Target: active FYN (human recombinant, 62.7 kDa) (Homo sapiens, UniProt P06241)
Assay: In vitro kinase assay (Z′-LYTE FRET)
Assay type: biochemical
Conditions: read-out: IC50(nM) FYN INHIBITION
Experimental: Assays to determine the kinase inhibitory activity of compounds were performed using an automatic liquid handling device (Microlab STAR Hamilton) and Z′-LYTE™ Kinase Assay Platform, a Fluorescence Resonance Energy Transfer (FRET)-based assay platform compatible with high-throughput screening (HTS) applications. The assay employs a fluorescence-based, coupled-enzyme format and utilizes the differential sensitivity of phosphorylated and non-phosphorylated peptides to proteolytic cleavage.
All reagents were diluted in reaction buffer and the kinase reaction was carried out in a total volume of 10 μl, for 60 minutes at 25° C. The 0% Phosphorylation (i.e. no ATP) and 100% Phosphorylation (i.e. synthetically phosphorylated peptide supplied) Assay Controls, included in each plate, allowed to calculate the percent phosphorylation achieved in the specific reaction well. The 0% Inhibition and 0% Phosphorylation (i.e. 100% Inhibition) Controls define the dynamic range in the screen. At the end of incubation, a secondary reaction (the Development Reaction) started by adding 5 μl of Development Reagent, containing a site-specific protease that recognizes and cleaves non-phosphorylated peptides, and was interrupted after 60 minutes with 5 μl/sample of Stop Reagent.
The compounds were tested in a range of concentrations 10^−6-10^−9 M.
Results are expressed as percentage of inhibition and the IC50 values were calculated by non-linear curve fitting using GraphPad™ Prism software.

Sequence of active FYN (human recombinant, 62.7 kDa) (P06241 whole entry): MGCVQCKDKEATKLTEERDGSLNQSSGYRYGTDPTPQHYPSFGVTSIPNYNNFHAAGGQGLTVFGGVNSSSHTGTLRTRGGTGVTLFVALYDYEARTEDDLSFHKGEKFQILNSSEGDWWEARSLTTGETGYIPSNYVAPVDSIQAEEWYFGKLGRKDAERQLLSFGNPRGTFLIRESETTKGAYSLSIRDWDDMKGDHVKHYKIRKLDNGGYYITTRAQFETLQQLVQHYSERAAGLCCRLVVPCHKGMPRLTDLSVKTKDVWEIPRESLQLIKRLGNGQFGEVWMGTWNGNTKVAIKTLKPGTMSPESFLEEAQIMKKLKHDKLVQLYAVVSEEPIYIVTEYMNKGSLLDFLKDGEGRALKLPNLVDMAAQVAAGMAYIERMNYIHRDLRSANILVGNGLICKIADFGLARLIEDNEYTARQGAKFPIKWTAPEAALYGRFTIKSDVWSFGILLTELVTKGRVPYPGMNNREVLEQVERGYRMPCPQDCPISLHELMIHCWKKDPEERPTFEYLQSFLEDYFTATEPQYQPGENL

Compound: O=C(Nc1ccc(CN2CCN(c3nccc(Nc4cc(C5CC5)[nH]n4)n3)CC2)cc1)c1ccccc1F [Compound 3, N-(4-((4-(4-((5-cyclopropyl-1H-pyrazol-3-yl)amino)pyrimidin-2-yl)piperazin-1-yl)methyl)phenyl)-2-fluorobenzamide]
IC50: 70 nM

Compound: O=C(Nc1ccc(CN2CCN(c3nccc(Nc4cc(C5CC5)[nH]n4)n3)CC2)cc1)c1ccccc1Cl [Compound 5, 2-chloro-N-(4-((4-(4-((5-cyclopropyl-1H-pyrazol-3-yl)amino)pyrimidin-2-yl)piperazin-1-yl)methyl)phenyl)benzamide]
IC50: 23 nM

Compound: COc1ccccc1C(=O)Nc1ccc(CN2CCN(c3nccc(Nc4cc(C5CC5)[nH]n4)n3)CC2)cc1 [Compound 7, N-(4-((4-(4-((5-cyclopropyl-1H-pyrazol-3-yl)amino)pyrimidin-2-yl)piperazin-1-yl)methyl)phenyl)-2-methoxy-benzamide]
IC50: 150 nM

Compound: O=C(Nc1ccc(CN2CCN(c3nccc(Nc4cc(C5CC5)[nH]n4)n3)CC2)cc1)c1ccc(F)cc1F [Compound 11, N-(4-((4-(4-((5-cyclopropyl-1H-pyrazol-3-yl)amino)pyrimidin-2-yl)piperazin-1-yl)methyl)phenyl)-2,4-difluoro-Benzamide]
IC50: 16 nM

Compound: COc1cc(C)ccc1C(=O)Nc1ccc(CN2CCN(c3nccc(Nc4cc(C5CC5)[nH]n4)n3)CC2)cc1 [Compound 15, N-(4-((4-(4-((5-cyclopropyl-1H-pyrazol-3-yl)amino)pyrimidin-2-yl)piperazin-1-yl)methyl)phenyl)-2-methoxy-4-methyl benzamide]
IC50: 220 nM

Compound: Cc1nc(C(=O)Nc2ccc(CN3CCN(c4nccc(Nc5cc(C6CC6)[nH]n5)n4)CC3)cc2)co1 [Compound 20, N-(4-((4-(4-((5-cyclopropyl-1H-pyrazol-3-yl)amino)pyrimidin-2-yl)piperazin-1-yl)methyl)phenyl)-2-methyloxazole-4-carboxamide]
IC50: 86 nM

Compound: O=C(Nc1ccc(CN2CCN(c3nccc(Nc4cc(C5CC5)[nH]n4)n3)CC2)cc1)c1ccccn1 [Compound 24, N-(4-((4-(4-((5-cyclopropyl-1H-pyrazol-3-yl)amino)pyrimidin-2-yl)piperazin-1-yl)methyl)phenyl)picolinamide]
IC50: 1100 nM

Compound: Cc1cccnc1C(=O)Nc1ccc(CN2CCN(c3nccc(Nc4cc(C5CC5)[nH]n4)n3)CC2)cc1 [Compound 25, N-(4-((4-(4-((5-cyclopropyl-1H-pyrazol-3-yl)amino)pyrimidin-2-yl)piperazin-1-yl)methyl)phenyl)-3-methyl-picolinamide]
IC50: 105 nM

Compound: C[C@H]1CN(c2nccc(Nc3cc(C4CC4)[nH]n3)n2)CCN1Cc1ccc(NC(=O)c2cccnc2C(F)(F)F)cc1 [Compound 31, (S)-N-(4-((4-(4-((5-cyclopropyl-1H-pyrazol-3-yl)amino)pyrimidin-2-yl)-2-methyl-piperazin-1-yl)methyl)phenyl)-2-(trifluoromethyl)nicotinamide]
IC50: 667 nM

Compound: Cn1ccnc1C(=O)Nc1ccc(CN2CCN(c3nccc(Nc4cc(C5CC5)[nH]n4)n3)CC2)cc1 [Compound 34, N-(4-((4-(4-((5-cyclopropyl-1H-pyrazol-3-yl)amino)pyrimidin-2-yl)piperazin-1-yl)methyl)phenyl)-1-methyl-1H-imidazole-2-carboxamide]
IC50: 1450 nM

Compound: O=C(Nc1ccc(CN2CCN(c3nccc(Nc4cc(C5CC5)[nH]n4)n3)CC2)cc1)c1cnccn1 [Compound 35, N-(4-((4-(4-((5-cyclopropyl-1H-pyrazol-3-yl)amino)pyrimidin-2-yl)piperazin-1-yl)methyl)phenyl)pyrazine-2-carboxamide]
IC50: 282 nM

Compound: O=S(=O)(Nc1ccc(CN2CCN(c3nccc(Nc4cc(C5CC5)[nH]n4)n3)CC2)cc1)c1ccccc1F [Compound 40, N-(4-((4-(4-((5-cyclopropyl-1H-pyrazol-3-yl)amino)pyrimidin-2-yl)piperazin-1-yl)methyl)phenyl)-2-fluorobenzene-sulfonamide]
IC50: 280 nM

Further lines, results first:

IC50: 96 nM
Compound: O=C(Nc1ccc(CN2CCN(c3nccc(Nc4cc(C5CC5)[nH]n4)n3)CC2)cc1)c1ccccc1 [Compound 1, N-(4-((4-(4-((5-cyclopropyl-1H-pyrazol-3-yl)amino)pyrimidin-2-yl)piperazin-1-yl)methyl)phenyl)benzamide]

IC50: 89 nM
Compound: CC(C)c1ccccc1C(=O)Nc1ccc(CN2CCN(c3nccc(Nc4cc(C5CC5)[nH]n4)n3)CC2)cc1 [Compound 6, N-(4-((4-(4-((5-cyclopropyl-1H-pyrazol-3-yl)amino)pyrimidin-2-yl)piperazin-1-yl)methyl)phenyl)-2-isopropylbenzamide]

IC50: > 1000 nM
Compound: O=C(Nc1ccc(CN2CCN(c3nccc(Nc4cc(C5CC5)[nH]n4)n3)CC2)cc1)c1cccc(C(F)(F)F)c1 [Compound 9, N-(4-((4-(4-((5-cyclopropyl-1H-pyrazol-3-yl)amino)pyrimidin-2-yl)piperazin-1-yl)methyl)phenyl)-3-(trifluoromethyl)benzamide]

IC50: 950 nM
Compound: O=C(Nc1ccc(CN2CCN(c3nccc(Nc4cc(C5CC5)[nH]n4)n3)CC2)cc1)c1ccc(C(F)(F)F)cc1 [Compound 10, N-(4-((4-(4-((5-cyclopropyl-1H-pyrazol-3-yl)amino)pyrimidin-2-yl)piperazin-1-yl)methyl)phenyl)-4-(trifluoromethyl)benzamide]

IC50: 122 nM
Compound: CS(=O)(=O)c1cccc(C(=O)Nc2ccc(CN3CCN(c4nccc(Nc5cc(C6CC6)[nH]n5)n4)CC3)cc2)c1 [Compound 16, N-(4-((4-(4-((5-cyclopropyl-1H-pyrazol-3-yl)amino)pyrimidin-2-yl)piperazin-1-yl)methyl)phenyl)-3-(methylsulfonyl)benzamide]

IC50: 1020 nM
Compound: CCc1cc(NC(=O)c2ccccc2F)ccc1CN1CCN(c2nc(C)cc(Nc3cc(C4CC4)[nH]n3)n2)CC1 [Compound 19, N-(4-((4-(4-((5-cyclopropyl-1H-pyrazol-3-yl)amino)-6-methylpyrimidin-2-yl)piperazin-1-yl)methyl)-3-ethylphenyl)-2-fluorobenzamide]

IC50: 424 nM
Compound: Cc1nc(C(=O)Nc2ccc(CN3CCN(c4nccc(Nc5cc(C6CC6)[nH]n5)n4)CC3)nc2)c(C(F)(F)F)o1 [Compound 22, N-(6-((4-(4-((5-cyclopropyl-1H-pyrazol-3-yl)amino)pyrimidin-2-yl)piperazin-1-yl)methyl)pyridin-3-yl)-2-methyl-5-(trifluoromethyl)oxazole-4-carboxamide]

IC50: 237 nM
Compound: COc1ncccc1C(=O)Nc1ccc(CN2CCN(c3nccc(Nc4cc(C5CC5)[nH]n4)n3)CC2)cc1 [Compound 28, N-(4-((4-(4-((5-cyclopropyl-1H-pyrazol-3-yl)amino)pyrimidin-2-yl)piperazin-1-yl)methyl)phenyl)-2-methoxy-nicotinamide]

IC50: 180 nM
Compound: C[C@@H]1CN(c2nccc(Nc3cc(C4CC4)[nH]n3)n2)CCN1Cc1ccc(NC(=O)c2cccnc2C(F)(F)F)cc1 [Compound 30, (R)-N-(4-((4-(4-((5-cyclopropyl-1H-pyrazol-3-yl)amino)pyrimidin-2-yl)-2-methylpiperazin-1-yl)methyl)phenyl)-2-(trifluoromethyl)nicotinamide]

IC50: 74 nM
Compound: Cn1cc(C(=O)Nc2ccc(CN3CCN(c4nccc(Nc5cc(C6CC6)[nH]n5)n4)CC3)cc2)c(C(F)(F)F)n1 [Compound 33, N-(4-((4-(4-((5-cyclopropyl-1H-pyrazol-3-yl)amino)pyrimidin-2-yl)piperazin-1-yl)-methyl)phenyl)-1-methyl-3-(trifluoromethyl)-1H-pyrazole-4-carboxamide]

IC50: > 1000 nM
Compound: O=C(Nc1ccc(OC(F)(F)F)cc1)c1ccc(CN2CCN(c3nccc(Nc4cc(C5CC5)[nH]n4)n3)CC2)cc1 [Compound 37, 4-((4-(4-((5-cyclopropyl-1H-pyrazol-3-yl)amino)pyrimidin-2-yl)piperazin-1-yl)methyl)-N-(4-(trifluoromethoxy)phenyl)benzamide]

IC50: > 1000 nM
Compound: O=C(Nc1cccc(C(F)(F)F)c1)c1ccc(CN2CCN(c3nccc(Nc4cc(C5CC5)[nH]n4)n3)CC2)cc1 [Compound 38, 4-((4-(4-((5-cyclopropyl-1H-pyrazol-3-yl)amino)pyrimidin-2-yl)piperazin-1-yl)methyl)-N-(3-(trifluoromethyl)-phenyl)benzamide]

IC50: > 1000 nM
Compound: O=C(Nc1ccc(C(F)(F)F)cc1)c1ccc(CN2CCN(c3nccc(Nc4cc(C5CC5)[nH]n4)n3)CC2)cc1 [Compound 39, 4-((4-(4-((5-cyclopropyl-1H-pyrazol-3-yl)amino)pyrimidin-2-yl)piperazin-1-yl)methyl)-N-(4-(trifluoromethyl)phenyl)-benzamide]

IC50: 663 nM
Compound: O=C(Nc1ccc(CN2CCN(c3nccc(Nc4cc(C5CC5)[nH]n4)n3)CC2)nn1)c1ccccc1C(F)(F)F [Compound 42, N-(6-((4-(4-((5-cyclopropyl-1H-pyrazol-3-yl)amino)pyrimidin-2-yl)piperazin-1-yl)methyl)pyridazin-3-yl)-2-(trifluoromethyl)benzamide]

IC50: > 1000 nM
Compound: O=C(Nc1ccc(CN2CCN(c3nccc(Nc4nnc(C5CC5)o4)n3)CC2)cc1)c1ccccc1C(F)(F)F [Compound 44, N-(4-((4-(4-((5-cyclopropyl-1,3,4-oxadiazol-2-yl)amino)pyrimidin-2-yl)piperazin-1-yl)methyl)phenyl)-2-(trifluoromethyl)benzamide]
